ChEMBL document CHEMBL1143564, “Structures of three classes of anticancer agents bound to the human topoisomerase I-DNA covalent complex” (J Med Chem, 2005)

Biological target: T1, DNA topoisomerase 1 (Homo sapiens, UniProt P11387)
T1 sequence (P11387 whole entry): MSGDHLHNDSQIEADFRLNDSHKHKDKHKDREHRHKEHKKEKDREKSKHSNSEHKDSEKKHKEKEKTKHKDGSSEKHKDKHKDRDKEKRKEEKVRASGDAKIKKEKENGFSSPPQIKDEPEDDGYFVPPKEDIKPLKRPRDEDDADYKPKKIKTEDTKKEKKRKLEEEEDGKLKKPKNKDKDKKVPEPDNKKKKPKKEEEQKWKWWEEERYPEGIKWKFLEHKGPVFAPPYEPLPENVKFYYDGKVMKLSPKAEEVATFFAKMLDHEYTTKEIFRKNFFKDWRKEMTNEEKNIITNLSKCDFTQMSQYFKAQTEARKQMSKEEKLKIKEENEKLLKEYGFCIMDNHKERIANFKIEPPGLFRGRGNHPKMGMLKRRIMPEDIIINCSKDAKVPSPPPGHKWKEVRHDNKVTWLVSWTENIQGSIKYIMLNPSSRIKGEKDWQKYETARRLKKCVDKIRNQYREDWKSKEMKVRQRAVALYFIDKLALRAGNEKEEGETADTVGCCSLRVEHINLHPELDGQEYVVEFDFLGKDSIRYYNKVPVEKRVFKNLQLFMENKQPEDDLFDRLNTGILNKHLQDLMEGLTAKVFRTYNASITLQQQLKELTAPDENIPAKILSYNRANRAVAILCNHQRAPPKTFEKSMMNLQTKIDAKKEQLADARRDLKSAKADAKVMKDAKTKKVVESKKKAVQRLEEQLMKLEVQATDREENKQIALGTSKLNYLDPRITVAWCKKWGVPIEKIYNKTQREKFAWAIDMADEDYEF
Experiment: Inhibition of topoisomerase I-DNA complex in trapping assay

- IC50: 30 nM
Compound: O=C1NC(=O)c2c1c1c3ccc(O)cc3[nH]c1c1c2c2ccc(O)cc2n1C1OC(CO)C(O)C(O)C1O (stereo unspecified)
